Values after ≈ are worked out from the molar mass of the structure shown.
Experiments:
Type in all cases: biochemical
[1] = molecular target: T1, collagenase from Histidium histolyticum; test: fluorescence assay of collagen hydrolysis ([…],4-DHPAA / periodate); settings: collagen substrate; borate buffer pH 7.5; 5 mM CaCl2; 37 °C
T1 construct: gene colG

tyrosinase from mushroom = molecular target: T2, tyrosinase from mushroom; test: absorbance at […] nm; settings: L-tyrosine substrate; 20 mM phosphate pH 6.8; room temperature
T2 construct: gene PPO1

[2] = molecular target: T3, hyaluronidase from bovine (Bos taurus, UniProt Q2YDK3); test: turbidity with acidic albumin, absorbance at […] nm; settings: read-out: % inhibition at 40.0 μg/mL
T3 construct: gene SPAM1; commercial native enzyme (Sigma-Aldrich)
T3 sequence (Q2YDK3 36-553): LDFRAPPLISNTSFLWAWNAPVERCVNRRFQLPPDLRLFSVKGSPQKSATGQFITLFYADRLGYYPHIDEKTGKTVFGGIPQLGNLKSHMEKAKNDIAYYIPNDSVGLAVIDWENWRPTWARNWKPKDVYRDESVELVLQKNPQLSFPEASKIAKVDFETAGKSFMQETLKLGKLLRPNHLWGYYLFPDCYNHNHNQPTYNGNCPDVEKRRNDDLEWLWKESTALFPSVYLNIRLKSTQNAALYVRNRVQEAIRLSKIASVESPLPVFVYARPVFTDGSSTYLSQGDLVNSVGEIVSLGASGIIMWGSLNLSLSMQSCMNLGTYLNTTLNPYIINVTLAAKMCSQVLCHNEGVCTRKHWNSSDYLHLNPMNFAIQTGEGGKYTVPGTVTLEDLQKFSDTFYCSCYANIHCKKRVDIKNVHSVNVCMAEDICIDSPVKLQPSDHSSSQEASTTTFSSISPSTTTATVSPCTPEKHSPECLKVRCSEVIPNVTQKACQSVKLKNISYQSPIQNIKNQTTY

| Compound | IC50 [1] | IC50 (tyrosinase from mushroom) | inhibition at 40 µg/mL [2] |
| --- | --- | --- | --- |
| O=C1O[C@H]([C@@H](O)CO)C(O)=C1O [ascorbic acid] | 107.84 ± 0.001 µg/mL (≈ 612 µM) | 69.8 ± 0.018 µg/mL (≈ 396 µM) |  |
| O=c1c2cc(O)c(O)cc2oc2cc(O)c([C@@H]3O[C@H](CO)[C@@H](O)[C@H](O)[C@H]3O)c(O)c12 [mangiferin] | 30.06 ± 0.001 µg/mL (≈ 71.2 µM) |  | 1.72 ± 1.13% |

— article PMC10674866, “Electrosprayed Nanoparticles Containing Mangiferin-Rich Extract from Mango Leaves for Cosmeceutical Application” (Nanomaterials, 2023)
